Each structure is given as a SMILES string.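 Growth conditions: 96-well plates. Treatment: test compound, 48 hours, 5 concentrations. Analysis: linear interpolation between bracketing concentrations; unreached endpoints set to highest concentration. The concentration for 50% growth inhibition is given as GI50.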 The source made the active and inactive calls. Cut-off read from the data, not from the text of the source: active = GI50 up to about 1.1 µM and inactive = higher.

Among the test systems are SNB-75; CAKI-1; OVCAR-3; 786-0; MOLT-4; ACHN; IGROV-1; HCC 2998; A549; RXF 393; SNB-19; NCI-H226; COLO 205; OVCAR-4; A498; SK-MEL-2; RPMI-8226.
Common to all, as to assay: NCI tumour cell line growth inhibition, 48 h

Regarding `COC(=O)C(=O)C(C(=O)C(=O)Nc1cc([N+](=O)[O-])ccc1C#N)c1nc2ccccc2nc1O` (stereo not given), the GI50 in the assay on SNB-75, in the assay on CAKI-1, with OVCAR-3, in the assay on 786-0, in the assay with MOLT-4 and with ACHN was > 100 µM (inactive) in each case. For the same molecule, the GI50 in the assay with IGROV-1, in the assay with HCC 2998, in the assay with A549, in the assay on RXF 393, in the assay on SNB-19 and with NCI-H226 was > 100 µM (inactive) in each case. The GI50 in the assay with COLO 205 and in the assay with OVCAR-4 was > 100 µM (inactive) each time.
Take `Cc1ccc(/C=C2\CCCCC2=O)cc1`: the GI50 with SNB-75 was 29.6 µM (inactive); in the assay with CAKI-1, 42.7 µM (inactive); in the assay with OVCAR-3, > 100 µM (inactive); with 786-0, > 100 µM (inactive); in the assay on MOLT-4, 15.8 µM (inactive); with ACHN, 48.1 µM (inactive). The GI50 in the assay with IGROV-1 was > 100 µM (inactive); in the assay with A549, > 100 µM (inactive); in the assay with A498 it was > 100 µM (inactive); in the assay with COLO 205 it was > 100 µM (inactive); in the assay with OVCAR-4, 33.6 µM (inactive).
Turning to `Cc1c2n(c(=O)[nH]c1=O)C1OC(CO)C(N=[N+]=[N-])C1O2` (stereo not given), the GI50 with SNB-75, with CAKI-1, with OVCAR-3, in the assay on 786-0, in the assay on MOLT-4 and in the assay with ACHN was > 100 µM (inactive) throughout. Also, the GI50 in the assay with IGROV-1 was > 100 µM (inactive); in the assay with SK-MEL-2, > 100 µM (inactive); in the assay with A549 it was > 100 µM (inactive); with RXF 393, 28 µM (inactive); in the assay with A498, > 100 µM (inactive); with RPMI-8226 it was > 100 µM (inactive). The GI50 in the assay with SNB-19, in the assay on NCI-H226, in the assay with COLO 205 and in the assay with OVCAR-4 was > 100 µM (inactive) in each case.
With `OCCNCCOc1ccc(/C(=C(/Cl)c2ccccc2)c2ccccc2)cc1`, the GI50 with SNB-75 was 2.37 µM (inactive); in the assay on CAKI-1, 12.4 µM (inactive); in the assay on OVCAR-3, 12.1 µM (inactive); with 786-0, 9.68 µM (inactive); in the assay with MOLT-4, 1.69 µM (inactive); in the assay on IGROV-1, 10.5 µM (inactive). Also, the GI50 is 13.2 µM (inactive) in the assay with SK-MEL-2; 0.34 µM (active) in the assay on A549; 0.637 µM (active) with RXF 393; 4.42 µM (inactive) in the assay with RPMI-8226; 13.9 µM (inactive) in the assay on SNB-19; 21.6 µM (inactive) in the assay on NCI-H226. The GI50 in the assay with COLO 205 was 3.56 µM (inactive); in the assay with OVCAR-4, 16.5 µM (inactive).
Consider `COC(=O)C1=C(C(=O)OC)C2(c3ccccc3)OC1(c1ccccc1)c1cc3ccccc3cc12`, for which the GI50 with SNB-75 is 0.604 µM (active); with CAKI-1 it was 1.29 µM (inactive); in the assay with OVCAR-3, 1.37 µM (inactive); in the assay on 786-0, 1.4 µM (inactive); in the assay with MOLT-4, 0.733 µM (active); in the assay on ACHN, 1.68 µM (inactive). Further, the GI50 was 1.9 µM (inactive) in the assay on IGROV-1; 1.64 µM (inactive) with SK-MEL-2; 1.95 µM (inactive) in the assay on HCC 2998; 2.43 µM (inactive) in the assay with A549; 1.29 µM (inactive) in the assay with RXF 393; 0.764 µM (active) in the assay with RPMI-8226. Besides, the GI50 in the assay with SNB-19 is 4.2 µM (inactive); in the assay with COLO 205, 2.11 µM (inactive); in the assay with OVCAR-4, 1.7 µM (inactive).
